The nature of test [1]: Inhibition of influenza A virus A/Memphis/1/71(H3N2)) sialidase. Details: species or system Influenza A virus (A/Memphis/1/1971(H3N2)).
A short description of test [2]: Inhibition of influenza A virus A/PR/8/34(H1N1)) sialidase.

The source of these data is ChEMBL document CHEMBL1146288, “Thiosialoside clusters using carbosilane dendrimer core scaffolds as a new class of influenza neuraminidase inhibitors” (Bioorg Med Chem Lett, 2007).

By IC50 is commonly meant the concentration at which inhibition is half-maximal. The low end stands for greater potency, the high end for weaker potency. With `CC(=O)N[C@@H]1[C@@H]([C@H](O)[C@H](O)CO)O[C@](SCCCCCOCCCSCCC[Si](CCCSCCCOCCCCCS[C@@]2(C(=O)O)C[C@@H](O)[C@H](NC(C)=O)[C@@H]([C@H](O)[C@H](O)CO)O2)(CCCSCCCOCCCCCS[C@@]2(C(=O)O)C[C@@H](O)[C@H](NC(C)=O)[C@@H]([C@H](O)[C@H](O)CO)O2)c2ccccc2)(C(=O)O)C[C@H]1O`, the IC50 in test [1] and in test [2] was 5 mM each time.
As for `CC(=O)N[C@@H]1[C@@H]([C@H](O)[C@H](O)CO)O[C@](SCCCCCOCCCSCCC[Si](CCCSCCCOCCCCCS[C@@]2(C(=O)O)C[C@@H](O)[C@H](NC(C)=O)[C@@H]([C@H](O)[C@H](O)CO)O2)(CCCSCCCOCCCCCS[C@@]2(C(=O)O)C[C@@H](O)[C@H](NC(C)=O)[C@@H]([C@H](O)[C@H](O)CO)O2)CCC[Si](C)(C)CCC[Si](CCCSCCCOCCCCCS[C@@]2(C(=O)O)C[C@@H](O)[C@H](NC(C)=O)[C@@H]([C@H](O)[C@H](O)CO)O2)(CCCSCCCOCCCCCS[C@@]2(C(=O)O)C[C@@H](O)[C@H](NC(C)=O)[C@@H]([C@H](O)[C@H](O)CO)O2)CCCSCCCOCCCCCS[C@@]2(C(=O)O)C[C@@H](O)[C@H](NC(C)=O)[C@@H]([C@H](O)[C@H](O)CO)O2)(C(=O)O)C[C@H]1O`, the IC50 in test [1] was determined as 1.25 mM; in test [2], 5 mM.
As for `CC(=O)N[C@@H]1[C@@H]([C@H](O)[C@H](O)CO)O[C@](SCCCCCOCCCSCCC[Si](CCCSCCCOCCCCCS[C@@]2(C(=O)O)C[C@@H](O)[C@H](NC(C)=O)[C@@H]([C@H](O)[C@H](O)CO)O2)(CCCSCCCOCCCCCS[C@@]2(C(=O)O)C[C@@H](O)[C@H](NC(C)=O)[C@@H]([C@H](O)[C@H](O)CO)O2)CCCSCCCOCCCCCS[C@@]2(C(=O)O)C[C@@H](O)[C@H](NC(C)=O)[C@@H]([C@H](O)[C@H](O)CO)O2)(C(=O)O)C[C@H]1O`, the IC50 in test [1] and in test [2] was 5 mM each time.
